These results are taken from US7285680B2, “β-alanine derivatives and the use thereof” (Ono Pharmaceutical Co., Ltd., priority 2002, dated 2007).

The target of the assay is human EDG-2 (Homo sapiens, UniProt Q92633). Kind of assay: Evaluation of EDG-2 antagonistic activity by monitoring the change of intracellular calcium ion concentration. It counts as cell-based. Particulars: CHO cells overexpressing human EDG-2 gene; LPA final concentration 100 nM; Fura2-AM intracellular calcium; compound 1 nM to 10 μM. The protocol:
Evaluation of EDG-2 Antagonistic Activity by Monitoring the Change of Intracellular Calcium Ion Concentration
Evaluation of EDG-2 antagonistic activity was carried out by using Chinese hamster ovary (CHO) cells which overexpressed human EDG-2 gene. Those cells were cultured with Ham's F12 medium (GIBCO BRL company No.11765-047) containing 10% FBS (fetal bovine serum), penicillin/streptomycin and blasticidin (5 μg/ml). At first in order to uptake Fura2-AM (Dojindo company No.348-05831) into the cells, cells were incubated for 60 minutes at 37 degrees in Fura2-AM (5 μM) solution [Ham's F12 medium containing 10% FBS, 20 mM HEPES buffer (pH 7.4) and 2.5 mM probenecid (Sigma company No.P-8761)]. […] Plates were set in fluorescent drug screening system (Hamamatsu photonics company, FDSS-2000) and intracellular calcium ion concentration was measured for 30 seconds with no stimulation and then solution of the compound of the present invention represented by formula (I) was added. Five minutes after adding thereto LPA (final concentration: 100 nM) was added, the increase of intracellular calcium ion concentrations before and after the addition of LPA (excitation wave length: […]; fluorescent wave length: 500 nm) were measured every 3 seconds. […]
On the technique in general: Calcium assays in cells follow changes in intracellular calcium, usually with a dye or a luminescent sensor.

Chain of human EDG-2 (Q92633 whole entry): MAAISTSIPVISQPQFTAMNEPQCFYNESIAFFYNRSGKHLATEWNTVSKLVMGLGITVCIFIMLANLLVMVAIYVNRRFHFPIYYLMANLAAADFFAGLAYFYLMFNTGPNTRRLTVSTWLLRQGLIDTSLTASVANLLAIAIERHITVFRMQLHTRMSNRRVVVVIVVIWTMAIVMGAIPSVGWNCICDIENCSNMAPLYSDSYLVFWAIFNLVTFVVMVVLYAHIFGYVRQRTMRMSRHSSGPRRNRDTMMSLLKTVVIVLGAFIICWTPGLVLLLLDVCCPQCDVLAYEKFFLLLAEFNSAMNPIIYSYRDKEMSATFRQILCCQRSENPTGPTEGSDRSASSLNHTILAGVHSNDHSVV

As to `COc1ccc(OC)c(CCN(CCC(=O)O)C(=O)c2ccccc2-c2ccccc2C(=O)NCc2cccnc2)c1` [Example 3(1), 3-(N-((2-(2-((pyridin-3-ylmethylamino)carbonyl)phenyl)phenyl)carbonyl)-N-(2-(2,5-dimethoxyphenyl)ethyl)amino)propanoic acid], the IC50 – broadly, the point on the concentration scale where inhibition reaches its midpoint – turned out to be 780 nM.

For the molecule `COc1ccc(OC)c(CCN(CCC(=O)O)C(=O)c2ccccc2-c2ccccc2C(=O)NCc2ccc(Cl)cc2)c1` [Example 3, 3-(N-((2-(2-((4-chlorobenzylamino)carbonyl)phenyl)phenyl)carbonyl)-N-(2-(2,5-dimethoxyphenyl)ethyl)amino)propanoic acid], the IC50 stood at 410 nM.
